The values that follow come from PubChem BioAssay AID1645848.

For the series the following is noted: buffer; pH 7.4; 6.0 h; 150.0 µM.

In brackets after ≈: the same amount, converted by molar mass.

Compound `Cc1ccnc(NC(=S)N2CCN(c3cc(Cl)cc(Cl)c3)CC2)c1` showed a solubility (kinetic) of 2.32 µg/mL (≈ 6.09 µM).

In turn, `Cc1ccc(S(=O)(=O)Nc2cnccc2C(=O)Nc2nc(C3CCC3)cs2)cc1` gave a solubility (kinetic) of over 63 µg/mL. For `O=S(=O)(Nc1ccccc1)c1ccc(NCc2cccc(Cl)c2O)cc1`, the kinetic solubility was determined as 2.64 µg/mL (≈ 6.8 µM). To `NCC(=O)Nc1cccc(-c2nn3c(=O)cc(N4CCNCC4)nc3s2)c1` belongs 43.2 µg/mL (≈ 112 µM); to `Cc1ccc(-c2cc(C(=O)Nc3ccc(C#N)cc3)c3ccccc3n2)cc1C`, under 1 µg/mL; to `O=C1CCCC2=C1C(c1ccncc1Br)N=C(Nc1nc3ccccc3o1)N2` (stereo not drawn), under 1 µg/mL. Then `O=C(Nc1ccc(C(=O)N2CCCC2)cc1)c1ccccc1F`, with over 46 µg/mL; and `Cc1c(C(=O)NN2CCCCC2)nn(-c2ccc(Cl)cc2Cl)c1-c1ccc(Cl)cc1`, with under 1 µg/mL. `Cc1ccc2nc(-c3ccccn3)c(Nc3ccccc3C)n2c1` showed a solubility (kinetic) of under 1 µg/mL. To `COc1cccc(CNc2ccc(S(=O)(=O)Nc3ccc(N4CCNCC4)cc3)cc2)c1O` belongs 58.3 µg/mL (≈ 124 µM); to `O=S(=O)(Nc1cccc2cccnc12)c1ccc(NCc2ccc(Br)cc2O)cc1`, under 1 µg/mL; to `S=C(NCCCc1cnc[nH]1)NCCCN(Cc1ccc(Cl)c(Cl)c1)c1ccc(Br)cn1`, under 1 µg/mL. As for `COc1ccccc1CNC(=O)CCCn1nc(C)c2c(C)n(-c3ccc(C)cc3)nc2c1=O`, the kinetic solubility was 2.29 µg/mL (≈ 4.98 µM). Then `Cc1noc(-c2cn(C3CCN(C(=O)c4ccc(OC(F)(F)F)cc4)CC3)nn2)n1`, with 37.9 µg/mL (≈ 89.7 µM); and `O=C(Nc1nc(-c2ccccc2)cs1)c1ccncc1NS(=O)(=O)c1ccc(Cl)cc1`, with under 1 µg/mL.

For the compound `COc1ccc(OC)c(-c2nc3c(C#N)c[nH]n3c2NC2CCCCC2)c1`, the kinetic solubility was found to be 12.2 µg/mL (≈ 33.5 µM).

The compound `CCN(c1ccccc1)S(=O)(=O)c1c(C)nc2scc(C)n2c1=O` registered a solubility (kinetic) of over 54 µg/mL. Then `CC(=O)Nc1ncc(S(=O)(=O)N2CCOCC2)s1`, with 26.6 µg/mL (≈ 91.1 µM); and `CC(C)NC(=O)c1nc(-c2ccc(Cl)nc2)c2cnccn12`, with 16.5 µg/mL (≈ 52.2 µM); and `CCOc1ccc(CCNC(=O)c2cc3ccccc3n2Cc2ccccn2)cc1OCC`, with under 1 µg/mL. Consider `c1ccc2c(Nc3ccon3)nc(-c3ccncc3)nc2c1`, for which the solubility (kinetic) is under 1 µg/mL. Then `CCS(=O)(=O)c1ncc(N(Cc2ccc(F)cc2)Cc2ccco2)c(C(=O)Nc2cc(C)ccc2C)n1`, with under 1 µg/mL; and `Cc1nn(Cc2ccc(Cl)cc2)c(C)c1NC(=O)c1cc(-c2ccc3c(c2)OCO3)on1`, with under 1 µg/mL. Consider `COC(=O)[C@@]12OC[C@]34[C@H]([C@@H](O)[C@@H]1O)[C@@]1(C)CC(=O)C(O)=C(C)[C@@H]1C[C@H]3OC(=O)[C@H](OC(=O)/C=C(\C)C(C)C)[C@@H]24`, for which the kinetic solubility is over 81 µg/mL. To `CC/C=C\C/C=C\C/C=C\C/C=C\C/C=C\C/C=C\CCC(=O)NCCO` belongs over 55 µg/mL; to `N#Cc1ccccc1S(=O)(=O)Nc1cnccc1C(=O)Nc1nc(-c2ccccc2)cs1`, 50.9 µg/mL (≈ 110 µM). Compound `CC(C)(C)c1ccc(C(=O)N2CC(=O)Nc3ccc(F)cc3C2c2ccc(F)cc2)cc1` (stereo not drawn) came in with a kinetic solubility of under 1 µg/mL. The compound `O=C(Nc1nc2cc(C(F)(F)F)ccc2s1)c1ccc(-c2cccc([N+](=O)[O-])c2)o1` returned a kinetic solubility of under 1 µg/mL. The compound `CCN1CCC(N(Cc2ccc3c(c2)OCO3)C(=O)Nc2cc(Cl)ccc2C(=O)OC)CC1` yielded a kinetic solubility of 58.5 µg/mL (≈ 123 µM).

The compound `COc1cccc(CC(=O)Nc2nc(-c3ccc4c(c3)CCN4C(=O)c3ccccc3C)c(C)s2)c1` had a kinetic solubility of under 1 µg/mL. For the compound `CC(=O)c1c(C)[nH]c(C(=O)Nc2ccc(C)c(S(=O)(=O)Nc3ccc(Br)cc3)c2)c1C`, the kinetic solubility was under 1 µg/mL.

In turn, `COc1ccc(-n2nc(C3CCN(C(=O)C4CC4)CC3)[nH]c2=O)cc1` came in with a kinetic solubility of over 51 µg/mL. Then `CCc1ccc(-n2nc(C)c3c2NC(=O)CSC3c2ccccc2C)cc1` (stereo not drawn), with 1.11 µg/mL (≈ 2.95 µM).
